Structures can show the parent of a compound that is named as a salt.
Assays:
[1] = molecular target: T1, androgen receptor AR (Homo sapiens, UniProt P10275, T878A); assay: AR degradation in LNCaP cells by ICW method; format: cell-based; conditions: 24 hours
T1 construct: degradation effect of compounds on androgen receptor AR in LNCaP cells; endogenous in cells; host or cells: LNCaP
T1 sequence (P10275 1-920 T878A): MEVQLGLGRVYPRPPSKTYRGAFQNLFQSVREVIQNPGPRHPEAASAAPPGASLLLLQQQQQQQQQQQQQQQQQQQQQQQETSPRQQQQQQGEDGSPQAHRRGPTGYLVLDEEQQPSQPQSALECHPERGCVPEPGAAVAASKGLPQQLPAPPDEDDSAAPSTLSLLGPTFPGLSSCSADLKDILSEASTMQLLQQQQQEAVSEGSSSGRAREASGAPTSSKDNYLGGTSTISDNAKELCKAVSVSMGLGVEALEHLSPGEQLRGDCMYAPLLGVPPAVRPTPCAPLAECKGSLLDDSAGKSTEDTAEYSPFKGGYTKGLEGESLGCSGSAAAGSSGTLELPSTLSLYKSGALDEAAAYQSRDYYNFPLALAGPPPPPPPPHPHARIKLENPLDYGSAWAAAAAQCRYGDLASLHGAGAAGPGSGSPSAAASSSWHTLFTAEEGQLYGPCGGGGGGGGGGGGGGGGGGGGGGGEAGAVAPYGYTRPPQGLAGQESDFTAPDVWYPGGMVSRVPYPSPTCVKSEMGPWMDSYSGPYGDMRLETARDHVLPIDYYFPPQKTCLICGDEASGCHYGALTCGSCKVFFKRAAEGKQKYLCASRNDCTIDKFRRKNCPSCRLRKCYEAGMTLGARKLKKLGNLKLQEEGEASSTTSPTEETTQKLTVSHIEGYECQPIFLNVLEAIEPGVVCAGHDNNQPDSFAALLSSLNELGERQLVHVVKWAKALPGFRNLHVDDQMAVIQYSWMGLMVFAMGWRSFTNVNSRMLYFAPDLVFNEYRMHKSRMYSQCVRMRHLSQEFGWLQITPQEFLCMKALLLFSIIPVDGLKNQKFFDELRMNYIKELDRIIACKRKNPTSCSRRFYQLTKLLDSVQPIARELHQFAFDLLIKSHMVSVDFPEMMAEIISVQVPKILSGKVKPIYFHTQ
Protocol: Experimental purpose: To test the degradation effect of compounds on androgen receptor AR in LNCaP cells by ICW method.
Day 1 • 1. The cell culture medium, 0.025% trypsin, and phosphate buffered saline were preheated in a 37° C. water bath. • 2. Cells digested by trypsin were centrifuged at 1000 rpm for 5 minutes. The supernatant was discarded, and then the cells were resuspended in fresh culture medium. • 3. The cells were inoculated in a COL-Coated CellCarrier-384 plate at a density of 4 k/[…]/well. • 4. The 384 cell plate inoculated with cells was placed in an ultra-clean bench for 10 minutes. • 5. The cell plate was cultured overnight in a CO2 cell incubator.
Day 2 • 1. The compound at a concentration of 10 mM was diluted to 3 mM (3 μL+7 μL of dimethyl sulfoxide) before serial dilution. • 2. The compound was serially diluted 3-fold (4 μL+8 μL) in an Echo plate using Bravo. • 3. ZPE and HPE control wells were setup, and the ZPE control wells were dimethyl sulfoxide. • 4. The Echo plate was centrifuged at 1000 rpm for 1 minute, and then the diluted compound was transferred from the Echo plate to an intermediate plate using Echo with 200 nL/well. • 5. To the intermediate plate was added the cell culture medium using Multidrop combi with […]. • 6. The intermediate plate was shaken on a horizontal shaker for 1 minute to mix the compound well with the culture medium. • 7. The compound was transferred from the intermediate dilution plate to the cell plate using Bravo with 4 μL/well. • 8. The cell plate was shaken on the horizontal shaker for 1 minute, and centrifuged at 800 rpm for 30 seconds. • 9. The cell plate was returned to the CO2 incubator, and cultured for another 24 hours.
Day 3 • 1. 4% paraformaldehyde was removed from the refrigerator and brought to room temperature. • 2. The cell plate was removed from the incubator. • 3. To the cell plate was directly added 4% paraformaldehyde with 40 μL/well. • 4. The plate was incubated at room temperature for 20 minutes. • 5. The culture medium was manually shaken off from the cell plate, inverted in a centrifuge, and centrifuged at 800 rpm for 7 seconds to fully remove the residual culture medium. • 6. To the cell plate was added 4% paraformaldehyde with 25 μL/well. • 7. The plate was incubated at room temperature for 30 minutes. • 8. The paraformaldehyde solution was manually shaken off from the cell plate, inverted in the centrifuge, and centrifuged at 800 rpm for 7 seconds. • 9. 0.1% Trition was added with 25 μL/well. • 10. The plate was incubated at room temperature for 10 minutes. • 11. The 0.1% Trition solution was manually shaken off from the cell plate, inverted in the centrifuge, and centrifuged at 800 rpm for 7 seconds. • 12. Intercept® (PBS) blocking buffer was added with 25 μL/well. • 13. The plate was incubated at room temperature for 1 hour. • 14. The Intercept® (PBS) blocking buffer solution was manually shaken off from the cell plate, inverted in the centrifuge, and centrifuged at 800 rpm for 7 seconds. • 15. Primary antibody solution was added with 20 μL/well. The cell plate was placed in the centrifuge, and centrifuged at 800 rpm for 7 seconds. • 16. The cell plate was sealed, and then incubated overnight at 4° C.
Day 4 • 1. The primary antibody solution was manually shaken off from the cell plate, inverted in the centrifuge, and centrifuged at 800 rpm for 7 seconds. • 2. The plate was washed three times with 110 μL of PBS. • 3. The cell plate was inverted in the centrifuge, and centrifuged at 800 rpm for 7 seconds. • 4. Secondary antibody and DAPI solution was added with 20 μL/well. The cell plate was placed in the centrifuge, and centrifuged at 800 rpm for 7 seconds. • 5. The plate was incubated at room temperature for 1 hour. • 6. The secondary antibody and DAPI solution was manually shaken off from the cell plate, inverted in the centrifuge, and centrifuged at 800 rpm for 7 seconds. • 7. […]

[2] = system: human prostate cancer LNCaP cells; assay: Antiproliferative effect in LNCaP cells (CellTiter-Glo, 6 days); format: cell-based; conditions: 144 h
Protocol: In this experiment, the inhibitory effect of the test compound on cell proliferation in human prostate cancer LNCaP cells was detected.
The tumor cell lines were cultured in a 37° C., 5% CO2 incubator under the above culture conditions. Regular passage, and cells in logarithmic growth phase were taken for plating.
2. Cell Plating • (1) Cells were stained with trypan blue and viable cells were counted; • (2) the cell concentration was adjusted to an appropriate concentration;
• (3) 90 μL of cell suspension per well was added to the culture plate as shown in the table above, and cell-free culture medium was added to the blank control well; • (4) the culture plate was cultured overnight in a 37° C., 5% CO2 incubator with 100% relative humidity.
Preparation of stock solution storage plate with 400 times the initial concentration of the compound: The compound was serially diluted with DMSO from the highest concentration to the lowest concentration. The solution was prepared as needed each time.
Preparation of Working Solution with 10 Times the Initial Concentration of Compounds and Cell Treatment with Compounds • (1) To a V-bottom 96-well plate was added 78 μL of cell culture medium, and 2 μL of compound was pipetted from a stock solution storage plate with 400 times the initial concentration of the compound and added to the cell culture medium of the 96-well plate. To vehicle control and blank control was added 2 μL of DMSO. After the compound or DMSO was added, blowing with a pipette and mixing well were carried out. • (2) Administration: 10 μL of a working solution with 10 times the initial concentration of the compound was added to the cell culture plate. To vehicle control and blank control was added 10 μL of DMSO-cell culture medium mixture. • (3) The 96-well plate was returned to the incubator and cultured for 6 days.
The following steps were performed according to the instructions of Promega CellTiter-Glo luminescent cell viability assay kit (Promega-G7573). • (1) CellTiter-Glo buffer was melted and brought to room temperature; • (2) CellTiter-Glo substrate was brought to room temperature; • (3) CellTiter-Glo working solution was prepared by adding 100 mL of CellTiter-Glo buffer to a vial of CellTiter-Glo substrate to dissolve the substrate; • (4) the mixture was slowly vortexed and shaken to be fully dissolved; • (5) the cell culture plate was taken out and left for 30 minutes to equilibrate to room temperature; • (6) 50 μL of CellTiter-Glo working solution was added per well (equal to half the volume of cell culture medium per well). The cell plate was wrapped in aluminum foil to be protected from light; • (7) the culture plate was shaken on an orbital shaker for 2 minutes to induce cell lysis; (8) the culture plate was left at room temperature for 10 minutes to stabilize the luminescent signal; • (9) the luminescent signal was detected on a 2104 EnVision plate reader.
The inhibition rate (IR) of the test compound was calculated using the following formula: IR (%)=(RLU vehicle control−RLU compound)/(RLU vehicle control−RLU blank control)×100%. The inhibition rates of compounds at different concentrations were calculated in Excel, and then GraphPad Prism software was used to plot inhibition curves and calculate relevant parameters, including minimum inhibition rate, maximum inhibition rate, and ICSO.

[3] = system: human prostate cancer LNCaP xenograft tumor; assay: In vivo pharmacodynamic study, LNCaP subcutaneous xenograft tumor CB-17 SCID model; set-up: species or system CB-17 SCID mice; conditions: Enzalutamide 20 mg/kg p.o. QD
Protocol: Human prostate cancer LNCaP cells (ECACC-89110211) were cultured in vitro in a monolayer under the culture conditions of RPMI-1640 medium with 10% fetal bovine serum, […], and 100 μg/mL streptomycin, and cultured in a 37° C., 5% CO2 incubator.
Routine digestion with trypsin-EDTA was performed twice a week for passaging. When the cell saturation density was 80% to 90% and the number of cells reached the required level, the cells were collected, counted, and inoculated.
CB-17 SCID mice, 6 to 8 weeks old, male, weighing 18 to 22 g.
0.2 mL (1×10^7) of LNCaP cells (with matrix gel, volume ratio of 1:1) were subcutaneously inoculated on the right back of each mouse. The mice were subjected to surgical castration when the average tumor volume reached approximately 80 mm^3, and grouping and administration were initiated when the average tumor volume reached 166 mm^3.
Tumor diameters were measured twice a week with a vernier caliper. The formula for calculating tumor volume was: V=0.5a×b^2, wherein a and b represented the long and short diameters of the tumor, respectively.
The antitumor efficacy of compounds was evaluated by TGI (%). TGI (%) reflected the tumor growth inhibition rate. TGI (0%)=[(1−(average tumor volume at the end of administration in a treatment group−average tumor volume at the beginning of administration in this treatment group))/(average tumor volume at the end of treatment in the vehicle control group−average tumor volume at the beginning of treatment in the vehicle control group)]×100%.

## N#Cc1ccc(O[C@H]2CC[C@H](NC(=O)c3ccc(N4CCC(CN5CCN(c6ccc7c(ccc8occ(C9CCC(=O)NC9=O)c87)c6)CC5)CC4)nn3)CC2)cc1Cl (some centres unmarked) [Hydrochloride of WX014]
[1]
  DC50: 22.4 nM
  Dmax: 76.2%

## CC1(C)C(=O)N(c2ccc(C#N)c(C(F)(F)F)c2)C(=S)N1c1ccc(OCCN2CCN(C3(C(=O)Nc4ccc5occ(C6CCC(=O)NC6=O)c5c4)CC3)CC2)c(F)c1 (centres unmarked) [WX005]
[2]
  IC50: 190 nM

## CC1(C)C(=O)N(c2ccc(C#N)c(C(F)(F)F)c2)C(=S)N1c1ccc(OCCN2CCN(CC(=O)Nc3ccc4occ(C5CCC(=O)NC5=O)c4c3)CC2)c(F)c1 (centres unmarked) [WX001]
[2]
  IC50: 333 nM

## CC1(C)C(=O)N(c2ccc(C#N)c(C(F)(F)F)c2)C(=S)N1c1ccc(OCCN2CCN(CCCc3ccc4c(C5CCC(=O)NC5=O)coc4c3)CC2)c(F)c1 (centres unmarked) [WX004]
[2]
  IC50: 25 nM

## CNC(=O)c1ccc(N2C(=S)N(c3ccc(C#N)c(C(F)(F)F)c3)C(=O)C2(C)C)cc1F [Enzalutamide, reference compound]
[3]; Day 0, start of administration
  Tumor volume (Day 0): 166 ± 18 mm^3
[3]; Day 21
  TGI (Day 21): 101.9%
  Tumor volume (Day 21): 157 ± 37 mm^3

## CC1(C)C(=O)N(c2ccc(C#N)c(C(F)(F)F)c2)C(=S)N1c1ccc(OCCN2CCN(CC(=O)Nc3cccc4c3ccc3occ(C5CCC(=O)NC5=O)c34)CC2)c(F)c1 (centres unmarked) [WX009]
[1]
  DC50: 10.1 nM
  Dmax: 64.7%

## CC1(C)C(=O)N(c2ccc(C#N)c(C(F)(F)F)c2)C(=S)N1c1ccc(OCCN2CCN(CC(=O)Nc3ccc4c(ccc5occ(C6CCC(=O)NC6=O)c54)c3)CC2)c(F)c1 (centres unmarked) [WX003]
[2]
  IC50: 230 nM

— patent US20240190851A1, “FURAN FUSED RING-SUBSTITUTED GLUTARIMIDE COMPOUND” (MEDSHINE DISCOVERY INC., priority 2021, published 2024)
